Results as given in US20230167073A1 (Teijin Pharma Limited, priority 2020, published 2023).

target: T1, Human TRPC6 (Homo sapiens, UniProt Q9Y210); experiment: Evaluation of TRPC6 channel inhibitory activity (1), FLIPR Calcium 5 Assay Kit, OAG stimulation (Compound Nos. 1-1293); format: cell-based; settings: Human TRPC6 stably-expressing cells, OAG 30 μM, FLIPR Calcium 5 Assay Kit; read-out: Inhibitory activity (pIC50 class) (converted)
T1 construct: expressed in transfected cells
T1 sequence (Q9Y210 1-931): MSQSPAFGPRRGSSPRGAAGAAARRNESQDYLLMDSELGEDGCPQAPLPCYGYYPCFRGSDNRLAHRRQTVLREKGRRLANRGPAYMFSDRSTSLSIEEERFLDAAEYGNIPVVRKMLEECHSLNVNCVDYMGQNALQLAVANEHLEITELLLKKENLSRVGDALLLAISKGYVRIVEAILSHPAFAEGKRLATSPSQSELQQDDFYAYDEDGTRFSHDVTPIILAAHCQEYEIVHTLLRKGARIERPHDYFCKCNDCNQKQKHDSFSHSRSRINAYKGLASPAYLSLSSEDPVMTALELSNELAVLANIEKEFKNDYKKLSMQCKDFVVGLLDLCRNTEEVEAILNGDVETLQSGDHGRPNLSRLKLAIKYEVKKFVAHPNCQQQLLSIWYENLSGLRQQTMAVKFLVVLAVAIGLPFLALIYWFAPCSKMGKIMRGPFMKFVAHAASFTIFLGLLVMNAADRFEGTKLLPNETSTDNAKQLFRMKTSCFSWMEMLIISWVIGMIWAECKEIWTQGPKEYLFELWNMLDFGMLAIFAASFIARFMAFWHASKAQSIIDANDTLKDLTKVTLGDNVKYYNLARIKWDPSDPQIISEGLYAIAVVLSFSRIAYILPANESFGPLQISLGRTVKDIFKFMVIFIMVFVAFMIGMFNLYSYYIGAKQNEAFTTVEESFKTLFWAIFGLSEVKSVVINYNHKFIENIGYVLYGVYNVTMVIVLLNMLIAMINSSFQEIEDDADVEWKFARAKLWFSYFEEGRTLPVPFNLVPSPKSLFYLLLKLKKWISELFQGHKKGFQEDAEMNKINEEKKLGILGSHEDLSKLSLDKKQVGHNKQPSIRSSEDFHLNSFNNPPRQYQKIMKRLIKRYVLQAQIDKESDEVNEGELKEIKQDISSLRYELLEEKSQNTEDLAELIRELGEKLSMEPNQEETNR
Method in brief: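 Calcium influx read by FLIPR fluorescence in cells stably expressing human TRPC6, dye-loaded 30 min. Compounds preincubated 20 min, then OAG stimulation at 30 μM final. Inhibition fitted by four-parameter logistic regression to give pIC50, reported as +/++/+++ categories.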

IC50	Structure (SMILES)
< 10 nM	Cn1nc(-c2ccccn2)cc1Oc1cc(C#N)ccc1-c1ccc(C(O)CN)cc1 (centres unmarked) [Compound 161, 4-[4-(2-amino-1-hydroxyethyl)phenyl]-3-(2-methyl-5-pyridin-2-ylpyrazol-3-yl)oxybenzonitrile]
< 10 nM	Cn1nc(-c2ccccn2)cc1Oc1cc(C#N)ccc1-c1ccc(CCN)nc1 [Compound 162, 4-[6-(2-aminoethyl)pyridin-3-yl]-3-(2-methyl-5-pyridin-2-ylpyrazol-3-yl)oxybenzonitrile]
10 to 1000 nM	Cn1nc(-c2cccnc2)cc1Oc1cc(C#N)ccc1-c1ccc(CCN)cc1 [Compound 163, 4-[4-(2-aminoethyl)phenyl]-3-(2-methyl-5-pyridin-3-ylpyrazol-3-yl)oxybenzonitrile]
< 10 nM	Cc1ccc(-c2cc(Oc3cc(C#N)ccc3-c3ccc(CCN)cc3)n(C)n2)nc1 [Compound 164, 4-[4-(2-aminoethyl)phenyl]-3-[2-methyl-5-(5-methylpyridin-2-yl)pyrazol-3-yl]oxybenzonitrile]
10 to 1000 nM	Cn1nc(-c2ccc(F)cc2)cc1Oc1cc(C#N)ccc1-c1ccc(CCN)cc1 [Compound 165, 4-[4-(2-aminoethyl)phenyl]-3-[5-(4-fluorophenyl)-2-methylpyrazol-3-yl]oxybenzonitrile]
10 to 1000 nM	Cc1nc(Oc2cc(C#N)ccc2-c2ccc(CCN)nc2)cc(-c2ccccn2)n1 [Compound 166, 4-[6-(2-aminoethyl)pyridin-3-yl]-3-(2-methyl-6-pyridin-2-ylpyrimidin-4-yl)oxybenzonitrile]
10 to 1000 nM	Cc1nc(Oc2cc(C#N)ccc2-c2ccc(CCN)nc2)cc(-c2cccc(F)c2)n1 [Compound 167, 4-[6-(2-aminoethyl)pyridin-3-yl]-3-[6-(3-fluorophenyl)-2-methylpyrimidin-4-yl]oxybenzonitrile]
10 to 1000 nM	Cc1nc(Oc2cc(C#N)ccc2-c2csc(C(O)CN)n2)cc(N2CCOCC2)n1 (centres unmarked) [Compound 168, 4-[2-(2-amino-1-hydroxyethyl)-1,3-thiazol-4-yl]-3-(2-methyl-6-morpholin-4-ylpyrimidin-4-yl)oxybenzonitrile]
> 1000 nM	Cc1nc(Oc2cc(C#N)ccc2-n2cnc(C(O)CN)c2)cc(N2CCOCC2)n1 (centres unmarked) [Compound 169, 4-[4-(2-amino-1-hydroxyethyl)imidazol-1-yl]-3-(2-methyl-6-morpholin-4-ylpyrimidin-4-yl)oxybenzonitrile]
< 10 nM	Cc1nc(Oc2cc(C#N)ccc2-n2cc([C@@H](O)CN)cn2)cc(-c2ccccc2)n1 [Compound 170, 4-[4-[(1R)-2-Amino-1-hydroxyethyl]pyrazol-1-yl]-3-(2-methyl-6-phenylpyrimidin-4-yl)oxybenzonitrile]
< 10 nM	Cc1nc(Oc2cc(C#N)ccc2-n2cc([C@H](O)CN)cn2)cc(-c2ccccc2)n1 [Compound 171, 4-[4-[(1S)-2-amino-1-hydroxyethyl]pyrazol-1-yl]-3-(2-methyl-6-phenylpyrimidin-4-yl)oxybenzonitrile]
< 10 nM	Cc1cc(Oc2cc(C#N)ccc2-c2ccc(CCN)nc2)cc(N2CCOCC2)n1 [Compound 172, 4-[6-(2-aminoethyl)pyridin-3-yl]-3-(2-methyl-6-morpholin-4-ylpyridin-4-yl)oxybenzonitrile]

The remaining lines, values behind:

Structure (SMILES)	IC50
N#Cc1ccc(-c2ccc(CCN)nc2)c(Oc2cc(N3CCOCC3)nc(C(F)(F)F)n2)c1 [Compound 147, 4-[6-(2-aminoethyl)pyridin-3-yl]-3-[6-morpholin-4-yl-2-(trifluoromethyl)pyrimidin-4-yl]oxybenzonitrile]	10 to 1000 nM
N#Cc1ccc(-c2ccc(CCN)cn2)c(Oc2cc(N3CCOCC3)nc(C(F)(F)F)n2)c1 [Compound 148, 4-[5-(2-aminoethyl)pyridin-2-yl]-3-[6-morpholin-4-yl-2-(trifluoromethyl)pyrimidin-4-yl]oxybenzonitrile]	10 to 1000 nM
Cc1nc(Oc2cc(C#N)ccc2-c2ccc(C(O)CN)c(F)c2)cc(N2CCOCC2)n1 (centres unmarked) [Compound 149, 4-[4-(2-Amino-1-hydroxyethyl)-3-fluorophenyl]-3-(2-methyl-6-morpholin-4-ylpyrimidin-4-yl)oxybenzonitrile]	< 10 nM
Cc1nc(Oc2cc(C#N)ccc2-c2ccc(C(O)CN)c(Cl)c2)cc(N2CCOCC2)n1 (centres unmarked) [Compound 150, 4-[4-(2-amino-1-hydroxyethyl)-3-chlorophenyl]-3-(2-methyl-6-morpholin-4-ylpyrimidin-4-yl)oxybenzonitrile]	< 10 nM
Cc1nc(Oc2cc(C#N)ccc2-c2ccc(C(O)CN)c(C(F)(F)F)c2)cc(N2CCOCC2)n1 (centres unmarked) [Compound 151, 4-[4-(2-amino-1-hydroxyethyl)-3-(trifluoromethyl)phenyl]-3-(2-methyl-6-morpholin-4-ylpyrimidin-4-yl)oxybenzonitrile]	10 to 1000 nM
Cc1nc(Oc2cc(C#N)ccc2-c2ccc(C(O)CN)c(O)c2)cc(N2CCOCC2)n1 (centres unmarked) [Compound 152, 4-[4-(2-amino-1-hydroxyethyl)-3-hydroxyphenyl]-3-(2-methyl-6-morpholin-4-ylpyrimidin-4-yl)oxybenzonitrile]	10 to 1000 nM
Cc1nc(Oc2cc(C#N)ccc2-c2ccc(C(O)CN)c(F)c2F)cc(N2CCOCC2)n1 (centres unmarked) [Compound 153, 4-[4-(2-amino-1-hydroxyethyl)-2,3-difluorophenyl]-3-(2-methyl-6-morpholin-4-ylpyrimidin-4-yl)oxybenzonitrile]	< 10 nM
N#Cc1ccc(-n2cc(C(O)CN)cn2)c(Oc2cnnc(-c3ccccc3)c2)c1 (centres unmarked) [Compound 154, 4-[4-(2-amino-1-hydroxyethyl)pyrazol-1-yl]-3-(6-phenylpyridazin-4-yl)oxybenzonitrile]	10 to 1000 nM
N#Cc1ccc(-n2cc(C(O)CN)cn2)c(Oc2cc(N3CCOCC3)nc(C(F)(F)F)n2)c1 (centres unmarked) [Compound 155, 4-[4-(2-amino-1-hydroxyethyl)pyrazol-1-yl]-3-[6-morpholin-4-yl-2-(trifluoromethyl)pyrimidin-4-yl]oxybenzonitrile]	10 to 1000 nM
COc1cc(-c2ccc(C#N)cc2Oc2cc(N3CCOCC3)nc(C)n2)ccc1C(O)CN (centres unmarked) [Compound 156, 4-[4-(2-amino-1-hydroxyethyl)-3-methoxyphenyl]-3-(2-methyl-6-morpholin-4-ylpyrimidin-4-yl)oxybenzonitrile]	10 to 1000 nM
Cc1nc(Oc2cc(C#N)ccc2-c2ccc(C(O)CN)cc2C)cc(N2CCOCC2)n1 (centres unmarked) [Compound 157, 4-[4-(2-amino-1-hydroxyethyl)-2-methylphenyl]-3-(2-methyl-6-morpholin-4-ylpyrimidin-4-yl)oxybenzonitrile]	< 10 nM
Cc1nc(Oc2cc(C#N)ccc2-c2ccc(C(O)CN)c(CC#N)c2)cc(N2CCOCC2)n1 (centres unmarked) [Compound 158, 4-[4-(2-amino-1-hydroxyethyl)-3-(cyanomethyl)phenyl]-3-(2-methyl-6-morpholin-4-ylpyrimidin-4-yl)oxybenzonitrile]	10 to 1000 nM
Cc1nc(Oc2cc(C#N)ccc2-n2cc(C(O)CN)cn2)cc(-c2cccc(Cl)c2)n1 (centres unmarked) [Compound 159, 4-[4-(2-amino-1-hydroxyethyl)pyrazol-1-yl]-3-[6-(3-chlorophenyl)-2-methylpyrimidin-4-yl]oxybenzonitrile]	< 10 nM
Cn1nc(-c2ccccn2)cc1Oc1cc(C#N)ccc1-c1ccc(CCN)cc1 [Compound 160, 4-[4-(2-aminoethyl)phenyl]-3-(2-methyl-5-pyridin-2-ylpyrazol-3-yl)oxybenzonitrile]	< 10 nM
